{"source": "PubChem BioAssay AID256", "about": "(DTP/NCI, 2004)", "test_system": "CD2F1 mice, L1210 leukemia ip, survival T/C", "experiment": "NCI In Vivo Anticancer Drug Screen. Data for tumor model L1210 Leukemia (intraperitoneal) in CD2F1 (CDF1) mice", "details": "higher = longer survival", "how_it_was_run": "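Transplantable tumor in mice; compound-treated vs vehicle-treated groups. Read-out = treated/control ratio of the measured endpoint.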", "key": {"[1]": {"details": "endpoint: mean survival time, dose: 100.0 mg/kg/injection, schedule: Q04DX003 (ip), vehicle: saline with Tween-80"}, "[2]": {"details": "endpoint: mean survival time, dose: 200.0 mg/kg/injection, schedule: Q04DX003 (ip), vehicle: saline with Tween-80"}, "[3]": {"details": "endpoint: mean survival time, dose: 400.0 mg/kg/injection, schedule: Q04DX003 (ip), vehicle: saline with Tween-80"}, "[4]": {"details": "endpoint: mean survival time, dose: 100.0 mg/kg/injection, schedule: Q01DX001 (ip), vehicle: saline"}, "[5]": {"details": "endpoint: mean survival time, dose: 200.0 mg/kg/injection, schedule: Q01DX001 (ip), vehicle: saline"}, "[6]": {"details": "endpoint: mean survival time, dose: 400.0 mg/kg/injection, schedule: Q01DX001 (ip), vehicle: saline"}, "[7]": {"details": "endpoint: mean survival time, dose: 100.0 mg/kg/injection, schedule: Q01DX009 (ip), vehicle: saline with Tween-80"}, "[8]": {"details": "endpoint: mean survival time, dose: 200.0 mg/kg/injection, schedule: Q01DX009 (ip), vehicle: saline with Tween-80"}, "[9]": {"details": "endpoint: mean survival time, dose: 400.0 mg/kg/injection, schedule: Q01DX009 (ip), vehicle: saline with Tween-80"}}, "note": "Toxic doses and inconclusive results are not listed.", "data": [{"smiles": "CCOc1ccccc1N1C(=O)CSC1=S", "values": [{"measurement": "T/C", "setting": "endpoint: mean survival time, dose: 25.0 mg/kg/injection, schedule: Q04DX002 (ip), vehicle: other", "value": "93 % of control"}, {"measurement": "T/C", "setting": "endpoint: mean survival time, dose: 50.0 mg/kg/injection, schedule: Q04DX002 (ip), vehicle: other", "value": "93 % of control"}, {"measurement": "T/C", "setting": "endpoint: mean survival time, dose: 100.0 mg/kg/injection, schedule: Q04DX002 (ip), vehicle: other", "value": "89 % of control"}, {"measurement": "T/C", "setting": "endpoint: mean survival time, dose: 200.0 mg/kg/injection, schedule: Q04DX002 (ip), vehicle: other", "value": "101 % of control"}]}, {"smiles": "COc1cc2c(cc1OC)C1Cc3ccc4cc(OC)c(OC)cc4c3CN1CC2", "note": "(stereo not given)", "values": [{"measurement": "T/C", "setting": "endpoint: mean survival time, dose: 100.0 mg/kg/injection, schedule: Q01DX009 (ip), vehicle: saline", "value": "94 % of control"}, {"measurement": "T/C", "setting": "[1]", "value": "102 % of control"}, {"measurement": "T/C", "setting": "[2]", "value": "93 % of control"}, {"measurement": "T/C", "setting": "[3]", "value": "94 % of control"}]}, {"smiles": "CCCN(CCC)S(=O)(=O)c1ccc(NC(=O)OC2CCCC2)cc1", "values": [{"measurement": "T/C", "setting": "[4]", "value": "104 % of control"}, {"measurement": "T/C", "setting": "[5]", "value": "106 % of control"}, {"measurement": "T/C", "setting": "[6]", "value": "105 % of control"}]}, {"smiles": "ON=C(Cc1ccccc1)Cc1ccccc1", "values": [{"measurement": "T/C", "setting": "[7]", "value": "103 % of control"}, {"measurement": "T/C", "setting": "[1]", "value": "102 % of control"}, {"measurement": "T/C", "setting": "[8]", "value": "94 % of control"}, {"measurement": "T/C", "setting": "[2]", "value": "100 % of control"}, {"measurement": "T/C", "setting": "[9]", "value": "95 % of control"}, {"measurement": "T/C", "setting": "[3]", "value": "105 % of control"}]}, {"smiles": "CC12CCC(C1)C(C)(C)C2(O)c1ccccc1", "note": "(stereo not given)", "values": [{"measurement": "T/C", "setting": "[1]", "value": "92 % of control"}]}, {"smiles": "CC(=O)/C=C/C=C\\c1ccccc1", "values": [{"measurement": "T/C", "setting": "[7]", "value": "104 % of control"}, {"measurement": "T/C", "setting": "[8]", "value": "94 % of control"}, {"measurement": "T/C", "setting": "[9]", "value": "98 % of control"}]}, {"smiles": "CCCCCOC(=O)Nc1cccc(O)c1", "values": [{"measurement": "T/C", "setting": "[1]", "value": "95 % of control"}, {"measurement": "T/C", "setting": "[2]", "value": "94 % of control"}]}, {"smiles": "CCOC(=O)N1CCc2nc3ccccc3cc21", "values": [{"measurement": "T/C", "setting": "endpoint: mean survival time, dose: 50.0 mg/kg/injection, schedule: Q01DX001 (ip), vehicle: other", "value": "106 % of control"}, {"measurement": "T/C", "setting": "endpoint: mean survival time, dose: 100.0 mg/kg/injection, schedule: Q01DX001 (ip), vehicle: other", "value": "109 % of control"}, {"measurement": "T/C", "setting": "endpoint: mean survival time, dose: 200.0 mg/kg/injection, schedule: Q01DX001 (ip), vehicle: other", "value": "97 % of control"}]}, {"smiles": "CCC([NH-])(CC)C[NH-].[Cl][Pt+2][Cl]", "values": [{"measurement": "T/C", "setting": "endpoint: mean survival time, dose: 0.39 mg/kg/injection, schedule: Q04DX003 (ip), vehicle: saline with Tween-80", "value": "101 % of control"}, {"measurement": "T/C", "setting": "endpoint: mean survival time, dose: 0.79 mg/kg/injection, schedule: Q04DX003 (ip), vehicle: saline with Tween-80", "value": "102 % of control"}, {"measurement": "T/C", "setting": "endpoint: mean survival time, dose: 1.56 mg/kg/injection, schedule: Q04DX003 (ip), vehicle: saline with Tween-80", "value": "107 % of control"}, {"measurement": "T/C", "setting": "endpoint: mean survival time, dose: 3.12 mg/kg/injection, schedule: Q04DX003 (ip), vehicle: saline with Tween-80", "value": "108 % of control"}, {"measurement": "T/C", "setting": "endpoint: mean survival time, dose: 3.13 mg/kg/injection, schedule: Q04DX003 (ip), vehicle: saline", "value": "232 % of control"}, {"measurement": "T/C", "setting": "endpoint: mean survival time, dose: 6.25 mg/kg/injection, schedule: Q04DX003 (ip), vehicle: saline", "value": "208 % of control"}, {"measurement": "T/C", "setting": "endpoint: mean survival time, dose: 25.0 mg/kg/injection, schedule: Q04DX003 (ip), vehicle: saline with Tween-80", "value": "111 % of control"}]}, {"smiles": "O=c1nc(N2CCCCCC2)ccn1C1OC(CO)C(O)C1O", "note": "(stereo not given)", "values": [{"measurement": "T/C", "setting": "endpoint: median survival time, dose: 12.5 mg/kg/injection, schedule: Q01DX005 (ip), vehicle: distilled water + Tween-80", "value": "101 % of control"}, {"measurement": "T/C", "setting": "endpoint: median survival time, dose: 25.0 mg/kg/injection, schedule: Q01DX005 (ip), vehicle: distilled water + Tween-80", "value": "107 % of control"}, {"measurement": "T/C", "setting": "endpoint: median survival time, dose: 50.0 mg/kg/injection, schedule: Q01DX005 (ip), vehicle: distilled water + Tween-80", "value": "98 % of control"}, {"measurement": "T/C", "setting": "endpoint: median survival time, dose: 100.0 mg/kg/injection, schedule: Q01DX005 (ip), vehicle: distilled water + Tween-80", "value": "104 % of control"}, {"measurement": "T/C", "setting": "endpoint: median survival time, dose: 200.0 mg/kg/injection, schedule: Q01DX005 (ip), vehicle: distilled water + Tween-80", "value": "106 % of control"}]}, {"smiles": "CCOC(=O)CSC(=S)NC1CCCCC1", "values": [{"measurement": "T/C", "setting": "[1]", "value": "101 % of control"}, {"measurement": "T/C", "setting": "[2]", "value": "98 % of control"}, {"measurement": "T/C", "setting": "[3]", "value": "95 % of control"}]}, {"smiles": "CCCCOC(=O)CCCCC(=O)OCCCC", "values": [{"measurement": "T/C", "setting": "[7]", "value": "96 % of control"}, {"measurement": "T/C", "setting": "[1]", "value": "97 % of control"}, {"measurement": "T/C", "setting": "[8]", "value": "105 % of control"}, {"measurement": "T/C", "setting": "[2]", "value": "98 % of control"}, {"measurement": "T/C", "setting": "[9]", "value": "110 % of control"}, {"measurement": "T/C", "setting": "[3]", "value": "97 % of control"}]}, {"smiles": "CC(N)C(=O)O", "note": "(stereo not given)", "values": [{"measurement": "T/C", "setting": "[4]", "value": "106 % of control"}, {"measurement": "T/C", "setting": "[5]", "value": "112 % of control"}, {"measurement": "T/C", "setting": "[6]", "value": "98 % of control"}]}]}
